Laboratory results as given in patent US20050107405A1, “Pharmaceutical composition for alleviating pain or spasticity in a patient suffering from spinal cord injury” (priority 2003, published 2005).
Entries after “also recorded” stand apart in the source; their conditions may differ.

Experiments:
[1] = tested on: pain or spasticity in patients suffering from spinal cord injury; assay: Administration of sildenafil citrate (50 mg VIAGRA tablet) to three male patients with spinal cord injury; type: in vivo, human; conditions: for Effect of alleviating pain or spasticity caused by spinal cord injury (in words): patients with spinal cord injury (Patients 1 to 3), comparison with customary analgesics
Description: Sildenafil citrate was administered to three male patients of ages 30-73, who have sexual dysfunction and somatic pain. Patient 1: 7th thoracic vertebrae injury and complete paraplegia. […] Erectile dysfunction. Every day behavior: Wheel chair. Patient 2: 12th thoracic vertebrae injury and complete paraplegia. […] Erectile dysfunction. Every day behavior: Wheel chair. Patient 3: 6th cervical vertebrae injury and incomplete quadriplegia. They were constantly suffering from limb pain and spasticity. Erectile dysfunction. Every day behavior: Wheel chair. Patients 1 to 3 were dosed with a 50 mg tablet of […]® in the unit dosage form when feeling pain or spasticity.

[2] = tested on: morphine-induced antinociception; conditions: with morphine; cited from earlier work
peripheral nociception = conditions: potentiated by sodium nitroprasside and L-arginine; cited from earlier work
nociception = conditions: alone and with diclofenac; cited from earlier work
[3] = Patient 1, Th7 complete paraplegia, 50 mg tablet
[4] = Patient 1, Th7 complete paraplegia, 50 mg tablet, monocitrate
[5] = Patient 2, Th12 complete paraplegia, 50 mg tablet, monocitrate
[6] = Patient 3, C6 incomplete quadriplegia, 50 mg tablet, monocitrate

O=C(O)Cc1ccccc1Nc1c(Cl)cccc1Cl [diclofevac sodium]
Effect of alleviating pain or spasticity caused by spinal cord injury (in words) [1]: no effects of alleviating pain or spasticity could be found | Effect of alleviating pain or spasticity caused by spinal cord injury (in words) ([1]; listed as Voltaren): does not have any analgesic effects

CC(C(=O)O)c1ccc(CC2CCCC2=O)cc1 (stereo not shown) [loxoprofen sodium]
Effect of alleviating pain or spasticity caused by spinal cord injury (in words) [1]: no effects of alleviating pain or spasticity could be found | Effect of alleviating pain or spasticity caused by spinal cord injury (in words) ([1]; listed as Loxonin): does not have any analgesic effects

CCCc1nn(C)c2c(=O)[nH]c(-c3cc(S(=O)(=O)N4CCN(C)CC4)ccc3OCC)nc12.O=C(O)CC(O)(CC(=O)O)C(=O)O [sildenafil citrate, 1-[[3-(6,7-dihydro-1-methyl-7-oxo-3-propyl-1H-pyrazolo[4,3-d]pyrimidin-5-yl)-4-ethoxyphenyl]sulfonyl]-4-methylpiperazine monocitrate]
Emerging Time of Effect After Administration [1, 3]: 30 min | Time until side effect (light heat sensation) disappeared [1, 3]: two to three | Duration of Effects [1, 4]: around half; also recorded: half day | Improvement of Erectile Dysfunction [1, 4]: improved and Yes | Side Effects [1, 4]: Light heat sensation | Effects of alleviating pain or spasticity ([1]; Patient 2, Th12 complete paraplegia, 50 mg tablet): by about 30% | Duration of Effects [1, 5]: around one; also recorded: about one day | Emerging Time of Effect After Administration [1, 5]: around one; also recorded: one hour | Improvement of Erectile Dysfunction [1, 5]: not improved and No | Side Effects [1, 5]: No side effect was observed and No | Duration of Effects [1, 6]: 5 to 6 h | Improvement of Erectile Dysfunction [1, 6]: improved and No | Side Effects [1, 6]: No side effect was observed and No | Effect of alleviating pain or spasticity caused by spinal cord injury (in words) [1]: significantly alleviates the pain or spasticity | Alleviation of the pain or spasticity ([1]; summary over Patients 1 to 3, 50 mg): 20 to 50%

CCCc1nn(C)c2c(=O)[nH]c(-c3cc(S(=O)(=O)N4CCN(C)CC4)ccc3OCC)nc12 [sildenafil, 5-[2-ethoxy-5-(4-methyl-1-piperazinylsulphonyl)phenyl]-1-methyl-3-n-propyl-1,6-dihydro-7H-pyrazolo[4,3-d]pyrimidin-7-one]
Effect on morphine-induced antinociception [2]: significantly increases the morphine-induced antinociception | Antinociception (peripheral nociception): induces antinociception | Antinociceptive activity (nociception): produces antinociceptive activity, and increases that of diclofenac
